Data reported in article PMC5589090 (PLoS Medicine, 2017).
“And” between values parts separate entries of the source, which are not always exact repeats. Identical values can stand only once. Like-named read-outs stand apart in the source and are kept apart here.

Tests used:
[1] = system: L5178Y mouse lymphoma cells; design: method as in ref 75 (a number printed in a supplementary file, which may have a reference list of its own: not looked up in the article's list); details: cited from earlier work
[2] = Decitabine plasma pharmacokinetics by LCMS/MS after first oral THU-decitabine dose; assay type: in vivo, human; details: for Cmax: first dose
Experimental: Blood samples were drawn over a period of less than 1 minute into tubes pre-loaded with heparin and THU 10 μg/ml (to prevent in vitro metabolism by CDA) and immediately transferred onto ice. Samples were then centrifuged as soon as possible at 600 g for 5 minutes at 4°C. […] Pharmacokinetic data were analyzed using non-compartmental methods or a 2-compartment model with instantaneous/intravenous input using the R package PKLMfit. […] The AUClast (the area under the curve from the time of dosing to the last measurable concentration) was calculated by the linear trapezoidal method.
Samples will be processed immediately by centrifugation at 3000 × g for 5 min in a refrigerated centrifuge. […] To increase stability, tetrahydrouridine (THU), a cytidine deaminase inhibitor, will be added to the plasma supernatant at a final concentration of 100 μM immediately after centrifugation. Plasma (300 μL) will be then aliquoted into two tubes with the remaining plasma in a third tube. The plasma will be immediately frozen at −80 °C until analysis. All samples will be sent to Jiang Wang, PhASR at The Ohio State University for processing (appendix B).
The chromatographic separation will be performed on a 250 mm × 2.0 mm i.d., 4.0 μm, C18 column (YMC Co. Ltd., Kyoto, Japan) and a 20 mm × 2.1 mm i.d., 3.5 μm, C18 guard column (Waters Xterra RP18, Waters Corporation, Milford, MA, USA) kept at room temperature. The mobile phase used for chromatographic separation will be composed of 2 mM ammonium acetate containing 0.1% formic acid and methanol, and is delivered using a gradient flow. The mass spectrometer is equipped with an electrospray interface, which will be operated in a positive mode, and controlled by the completely validated Masslynx software (Waters Corporation, Milford, MA, USA). […] The analytical method is currently under development and validation according to the ICH Guideline (ICH Harmonized Tripartite Guideline. Validation of Analytical Procedures: Text and Methodology. Q2(R1). Incorporated in November, 2005) in the laboratory of Dr. Lyubimov (Toxicology Research Laboratory, TRL). Method specificity, linearity, range, accuracy, precision and detection limit will be established and validated. In addition, short-term, long-term and freezing/towing stability will be determined. All sample collection, handling and analysis procedures will be performed according to GLP and GCP requirements. All data and the report will be audited by the Quality Assurance Officer at TRL.
PK analysis: PK analysis will be performed using the Winnonlin software (version 5.0.1, Pharsight NC) and will include the determination of maximum plasma concentration (Cmax), time to maximum plasma concentration (Tmax), area under the plasma concentration-versus-time curve from time zero to last measurable plasma concentration (AUC0-t). The terminal rate constant ( [picture] z) will be determined from the slope of the terminal phase of the plasma concentration-time curve using uniform weight. The terminal half-life (T1/2) will be calculated as 0.693 divided by [picture] z. Area under the concentration-time curve (AUC) will be calculated using the log/linear trapezoidal rule. The AUC will be extrapolated to infinity (AUC0– [picture] ) by using the equation, AUC0– [picture] = AUC0–t + Clast/ [picture] z, where Clast will be the final quantifiable concentration.

tumor cell lines = system: tumor cell lines; design: method as in ref 83 (a number printed in a supplementary file, which may have a reference list of its own: not looked up in the article's list); details: of 25 940 genes analyzed; cited from earlier work
[3] = cited from earlier work
immortal phenotype = system: immortal phenotype; design: method as in ref 93 (a number printed in a supplementary file, which may have a reference list of its own: not looked up in the article's list); details: cited from earlier work
[4] = cited from earlier work; remark: listed apart in the source
[5] = cited from earlier work; remark: listed apart in the source
[6] = design: method as in Investigators Brochure; details: THU co-administration, mice; ref Investigators Brochure; cited from earlier work
E. Coli lac I transgene = details: ref 76 77; cited from earlier work
[7] = ref Investigators Brochure, cited from earlier work
[8] = system: Salmonella typhimurium tester strain TA100; design: method as in ref 78 (a number printed in a supplementary file, which may have a reference list of its own: not looked up in the article's list); details: cited from earlier work
lung tumor = system: lung tumor; design: method as in ref 91 (a number printed in a supplementary file, which may have a reference list of its own: not looked up in the article's list); details: cited from earlier work
[9] = per patient, SC 0.2 mg/kg 2x/week, 0.2 mg/kg

Nc1ncn([C@H]2C[C@H](O)[C@@H](CO)O2)c(=O)n1 [decitabine, 5-aza-2’-deoxycytidine]
mutations as measured by 6TG resistance [1]: did not produce mutations
mutations as measured by tri-fluorothymidine resistance ([1]; thymidine kinase locus): did induce mutations
Cmax ([2]; human, plasma, po, decitabine plasma concentration, Cmax, oral decitabine 0.08 mg/kg (cohort 4) 60 min after oral THU 10 mg/kg): 9 to 21 nM
Cmax ([2]; human, plasma, po, decitabine plasma concentration, Cmax, oral decitabine […] (cohort 5) 60 min after oral THU 10 mg/kg, at 2 hours): ~50 nM
decitabine detected in the plasma ([2]; lowest oral decitabine dose level 0.01 mg/kg after oral THU 10 mg/kg): detected
decitabine Tmax ([2]; oral decitabine 60 minutes after THU 10 mg/kg): hours
Cmax ([2]; read-out: decitabine plasma concentration, Cmax, oral decitabine […] (cohort 5) 60 min after oral THU 10 mg/kg, at 2 hours): 39 to 54 nM
genes with increased expression (tumor cell lines): 0.67%
fetal defects ([3]; pregnant mice, dose and gestation day related): increased fetal defects
fertility in off-spring after in utero exposure ([3]; primarily in males): decreased fertility in off-spring
immortal phenotype (immortal phenotype): reversed the immortal phenotype
total hemoglobin (Hb), peak ([4]; SC 0.2 mg/kg 2x/week for 12 weeks, five patients, baseline 7.88 ± 0.88): 9.04 ± 0.77 g/dL
Absolute Retic count B/L ([4]; baseline, per patient): 1.65e+11 L⁻¹ and 1.55e+11 L⁻¹ and 1.63e+11 L⁻¹ and 1.96e+11 L⁻¹ and 1.06e+11 L⁻¹
Annexin-V RBC B/L ([4]; baseline, per patient): 0% and 2% and 0.6% and 3.4% and 0.8%
EPO B/L ([4]; baseline, per patient): 197.8 mIU/ml and 25 mIU/ml and 241.4 mIU/ml and 186 mIU/ml and 86.6 mIU/ml
HbF B/L ([4]; baseline, per patient): 7 g/dL and 0.1 g/dL and 2.8 g/dL and 4.8 g/dL and 3.6 g/dL
Hemoglobin B/L ([4]; baseline, per patient): 8.8 g/dL and 10.7 g/dL and 6.1 g/dL and 7.8 g/dL and 6 g/dL
Indirect Bilirubin B/L ([4]; baseline, per patient): 25.7 µmol/L and 104.3 µmol/L and 89 µmol/L and 33 µmol/L and 20 µmol/L
Normochromic Normovolumetric Cells B/L ([4]; baseline, per patient): 36% and 67.4% and 65.4% and 63.9% and 61.2%
Serum LDH B/L ([4]; baseline, per patient): 893 U/L and 596 U/L and 458 U/L and 192 U/L and 258 U/L
genotoxicity (erythrocyte micronucleus, VDJ recombination assay) [4]: without erythrocyte micronucleus or VDJ recombination assay evidence of genotoxicity
Increases in Hb achieved ([4]; in two of the five patients): ≥ 1.5 g/dL
Absolute Retic count Nadir [4, 9]: 1.35e+11 L⁻¹ and 1.6e+11 L⁻¹ and 1.16e+11 L⁻¹ and 1.25e+11 L⁻¹ and 7.9e+10 L⁻¹
Absolute Retic count Wk 12 [4, 9]: 1.35e+11 L⁻¹ and 1.6e+11 L⁻¹ and 1.16e+11 L⁻¹ and 1.45e+11 L⁻¹ and 7.9e+10 L⁻¹
Annexin-V RBC Nadir [4, 9]: 0% and 0.1% and 0.4%
Annexin-V RBC Wk 12 [4, 9]: 0.5% and 0.7% and 0.1% and 2.6% and 1.1%
EPO Nadir [4, 9]: 117.2 mIU/ml and 17.1 mIU/ml and 131.4 mIU/ml and 180.7 mIU/ml and 71.5 mIU/ml
EPO Wk 12 [4, 9]: 117.2 mIU/ml and 24.4 mIU/ml and 238.5 mIU/ml and 340.5 mIU/ml and 71.5 mIU/ml
HbF Peak [4, 9]: 7.5 g/dL and 0.7 g/dL and 3.5 g/dL and 5.6 g/dL and 4.1 g/dL
HbF Wk 12 [4, 9]: 7.1 g/dL and 0.7 g/dL and 3.4 g/dL and 5.6 g/dL and 3.6 g/dL
Hemoglobin Peak [4, 9]: 9.4 g/dL and 11.8 g/dL and 7.7 g/dL and 8.7 g/dL and 7.6 g/dL
Hemoglobin Wk 12 [4, 9]: 9.4 g/dL and 11.8 g/dL and 6.4 g/dL and 8.7 g/dL and 7.5 g/dL
Indirect Bilirubin Nadir [4, 9]: 27.4 µmol/L and 83.8 µmol/L and 48 µmol/L and 18 µmol/L and 8 µmol/L
Indirect Bilirubin Wk 12 [4, 9]: 30.8 µmol/L and 83.8 µmol/L and 48 µmol/L and 33 µmol/L and 10 µmol/L
Neutrophil count Nadir [4, 9]: 2.82e+09 L⁻¹ and 2.2e+09 L⁻¹ and 5.2e+09 L⁻¹ and 2.1e+09 L⁻¹ and 4.5e+09 L⁻¹
Neutrophil count Wk 12 [4, 9]: 4.62e+09 L⁻¹ and 2.2e+09 L⁻¹ and 7.9e+09 L⁻¹ and 1.03e+10 L⁻¹ and 5.7e+09 L⁻¹
Normochromic Normovolumetric Cells Peak [4, 9]: 45.9% and 70% and 70.9% and 72.4%
Normochromic Normovolumetric Cells Wk 12 [4, 9]: 45.9% and 69% and 70.5% and 66.4% and 68.1%
Platelet count Peak [4, 9]: 2.96e+11 L⁻¹ and 1.038e+12 L⁻¹ and 1.265e+12 L⁻¹ and 8.01e+11 L⁻¹ and 1.301e+12 L⁻¹
Platelet count Wk 12 [4, 9]: 2.81e+11 L⁻¹ and 1.038e+12 L⁻¹ and 1.265e+12 L⁻¹ and 7.56e+11 L⁻¹ and 1.301e+12 L⁻¹
Serum LDH Nadir [4, 9]: 660 U/L and 541 U/L and 260 U/L and 149 U/L and 204 U/L
Serum LDH Wk 12 [4, 9]: 660 U/L and 556 U/L and 324 U/L and 167 U/L and 204 U/L
stability in plasma ([5]; hydrolysis and cytidine deaminase): very unstable in plasma
hydrolysis in aqueous solution every 7 hours ([5]; pH 7.4, 4 °C): approximately 2.5%
increase of AUClast compared to oral decitabine alone [6]: approximately 9 fold
transgene mutations (E. Coli lac I transgene): mutations predominantly at CpG nucleotides
increase of AUClast compared to oral decitabine alone ([7]; THU co-administration, baboons): approximately 9 fold
hematologic or other evidence of cytotoxicity ([7]; oral decitabine 5-10 mg/m^2 + oral THU 400 mg/m^2 2-3X/week up to 8 weeks): did not produce hematologic or other evidence of cytotoxicity
Cmax ([7]; read-out: decitabine Cmax, oral decitabine 100 mg/m^2 + oral THU 400 mg/m^2, in 1 of 7 animals): ~200 nM
mutagenicity [8]: weak mutagen
reduction in tumor incidence (lung tumor): 23%
reduction in tumor multiplicity (lung tumor): 42%
